{"source": "paper PMC11489133", "about": "“Obicetrapib exhibits favorable physiochemical and pharmacokinetic properties compared to previous cholesteryl ester transfer protein inhibitors: An integrated summary of results from non‐human primate studies and clinical trials” (Pharmacology Research & Perspectives, 2024)", "key": {"[1]": {"assay": "Phase I food effect trial on obicetrapib bioavailability (TA‐8995‐09)", "format": "in vivo, humans", "conditions": "for Cmax / AUC / t max: both sexes, human, plasma, oral, 10 mg; for t max: read-out: t max, median (minimum, maximum)", "protocol": "The PK parameters and the effect of food on the bioavailability of obicetrapib in humans have been examined in both Phase I[9] (TA‐8995‐09 CSR, NewAmsterdam Pharma) and Phase II trials.[10], [11], [12], [13] The trials were performed in accordance with the Declaration of Helsinki, Good Clinical Practice Guidelines, and applicable regulatory requirements. Approval was obtained from the relevant ethical review boards for each site. All volunteers provided written informed consent prior to participation. PK parameters were determined using WinNonlin software, version 4.1 or higher (Pharsight/Certara Corporation, USA). Concentrations of obicetrapib were summarized for each treatment group using descriptive statistics.\nThis was an open‐label, randomized, two‐sequence, two‐period, two‐treatment crossover study conducted to evaluate the effect of food on the bioavailability of 10 mg obicetrapib. Thirty healthy adult males and females were randomized to treatment and data were available for 23 participants. In Treatment Period I, participants received a single 10 mg dose of obicetrapib after an overnight fast. In Treatment Period II, participants received a single 10 mg dose of obicetrapib at 30 min following the start of a standardized high‐fat, high‐calorie breakfast that was preceded by an overnight fast. Blood samples were collected at pre‐dose and at intervals over 336 h after dosing in each treatment period. The interval between doses was 49 days. The half‐life of obicetrapib was expected to be less than 6 days; therefore, it was anticipated that 49 days would be well beyond five half‐lives and an adequate washout period (TA‐8995‐09 CSR, NewAmsterdam Pharma)."}, "[2]": {"design": "method as in PMID 24628035", "conditions": "cited from earlier work; for t ½ (terminal half‐life) / AUC (0–24 h) / C max / t max: fasting; for t ½ (terminal half‐life): arithmetic mean (CV%); for AUC (0–24 h) / C max: geometric mean (CV%); for C max: healthy White males"}}, "note": "Values joined by “and” are separate entries in the source; they are usually repeats but may differ in a detail not shown here. Equal values may be shown once. Read-outs that look alike come from different tables or passages of the source.", "data": [{"smiles": "CCOC(=O)N1c2ccc(C(F)(F)F)cc2C(N(Cc2cc(C(F)(F)F)cc(C(F)(F)F)c2)c2ncc(OCCCC(=O)O)cn2)CC1CC", "note": "(stereo not drawn) [Obicetrapib]", "values": [{"measurement": "increase of peak and overall systemic exposure (AUC, C max) under fed compared to fasted conditions", "setting": "[1]; 10 mg dose, high‐fat meal", "value": "~ 1.6 fold and 1.6 fold"}, {"measurement": "least‐squares geometric mean of fed versus fasted ratio, AUC0‐t", "setting": "[1]; 10 mg single dose", "value": 154.9, "unit": "%"}, {"measurement": "least‐squares geometric mean of fed versus fasted ratio, AUC0‐∞", "setting": "[1]; 10 mg single dose", "value": 155.4, "unit": "%"}, {"measurement": "least‐squares geometric mean of fed versus fasted ratio, C max", "setting": "[1]; 10 mg single dose", "value": 158.5, "unit": "%"}, {"measurement": "AUC(0‐t), LSGM Ratio (90% CI) (Fed vs. Fasted)", "setting": "[1]; 10 mg single dose, n = 23", "value": "155 (130, 184)"}, {"measurement": "AUC(0‐∞), LSGM Ratio (90% CI) (Fed vs. Fasted)", "setting": "[1]; 10 mg single dose, n = 23", "value": "155 (129, 187)"}, {"measurement": "C max, LSGM Ratio (90% CI) (Fed vs. Fasted)", "setting": "[1]; 10 mg single dose, n = 23", "value": "159 (126, 199)"}, {"measurement": "Cmax", "setting": "[1]; 10 mg single dose, Fasted, n = 23", "value": 140, "unit": "ng/mL"}, {"measurement": "AUC", "setting": "[1]; 10 mg single dose, Fasted, n = 23, read-out: AUC(0‐t), LS GM (converted)", "value": 12400, "unit": "ng·h/mL"}, {"measurement": "AUC", "setting": "[1]; 10 mg single dose, Fasted, n = 23, read-out: AUC(0‐∞), LS GM (converted)", "value": 16600, "unit": "ng·h/mL"}, {"measurement": "Cmax", "setting": "[1]; 10 mg single dose, Fed (high‐fat, high‐calorie breakfast), n = 23", "value": 222, "unit": "ng/mL"}, {"measurement": "AUC", "setting": "[1]; 10 mg single dose, Fed, n = 23, read-out: AUC(0‐t), LS GM (converted)", "value": 19200, "unit": "ng·h/mL"}, {"measurement": "AUC", "setting": "[1]; 10 mg single dose, Fed, n = 23, read-out: AUC(0‐∞), LS GM (converted)", "value": 25800, "unit": "ng·h/mL"}, {"measurement": "t max", "setting": "[1]; 10 mg single dose, fasted", "value": 5, "unit": "h"}, {"measurement": "t max", "setting": "[1]; 10 mg single dose, fed", "value": 5.5, "unit": "h"}, {"measurement": "effect of food on the AUC or C max", "setting": "[2]; 50 mg dose, fed versus fasted, n = 5 White healthy males", "value": "did not have a clinically relevant effect"}, {"measurement": "effects of food, age, gender, or ethnicity on the PK parameters", "setting": "[2]; PK assessment results of the other groups", "value": "no clinically relevant effects"}, {"measurement": "t ½ (terminal half‐life)", "setting": "[2]; single dose 5 mg", "value": "125 (22%) h"}, {"measurement": "AUC (0–24 h)", "setting": "[2]; single dose 5 mg", "value": "1816 (34%) ng·h/mL"}, {"measurement": "C max", "setting": "[2]; single dose 5 mg", "value": "138 (33%) ng/mL"}, {"measurement": "t max", "setting": "[2]; single dose 5 mg, median (minimum, maximum)", "value": "3 (2, 3) h"}, {"measurement": "t max", "setting": "[2]; single dose 5 mg, median (minimum, maximum), listed as obicetrapib", "value": "≤ 3", "unit": "h"}, {"measurement": "t ½ (terminal half‐life)", "setting": "[2]; single dose 10 mg", "value": "124 (20%) h"}, {"measurement": "AUC (0–24 h)", "setting": "[2]; single dose 10 mg", "value": "3580 (21%) ng·h/mL"}, {"measurement": "C max", "setting": "[2]; single dose 10 mg", "value": "251 (23%) ng/mL"}, {"measurement": "t max", "setting": "[2]; single dose 10 mg, median (minimum, maximum)", "value": "3 (2, 5) h"}, {"measurement": "t max", "setting": "[2]; single dose 10 mg, median (minimum, maximum), listed as obicetrapib", "value": "≤ 3", "unit": "h"}, {"measurement": "t ½ (terminal half‐life)", "setting": "[2]; single dose 25 mg", "value": "162 (19%) h"}, {"measurement": "AUC (0–24 h)", "setting": "[2]; single dose 25 mg", "value": "5952 (26%) ng·h/mL"}, {"measurement": "C max", "setting": "[2]; single dose 25 mg", "value": "467 (30%) ng/mL"}, {"measurement": "t max", "setting": "[2]; single dose 25 mg, median (minimum, maximum)", "value": "3.5 (2, 6) h"}, {"measurement": "t max", "setting": "[2]; single doses 50–150 mg", "value": 4, "unit": "h"}, {"measurement": "obicetrapib in urine", "setting": "[2]; single doses, any participant", "value": "not detected"}]}]}
